From patent publication US8101612B2, “Phthalazine compounds and methods of use” (Amgen Inc., priority 2006, dated 2012)

Columns and labels:
[1] = test system: production of TNF by monocytes activated with bacterial lipopolysaccharide (LPS); experiment: Lipopolysaccharide-activated monocyte TNF production assay (whole blood monocyte assay, LPS induced TNF release); assay type: cell-based; conditions: Homo sapiens
Protocol: Lipopolysaccharide-Activated Monocyte TNF Production Assay
Test compounds were evaluated in vitro for the ability to inhibit the production of TNF by monocytes activated with bacterial lipopolysaccharide (LPS). Fresh residual source leukocytes (a byproduct of plateletpheresis) were obtained from a local blood bank, and peripheral blood mononuclear cells (PBMCs) were isolated by density gradient centrifugation on Ficol-Paque Plus (Pharmacia). PBMCs were suspended at 2×10^6/mL in DMEM supplemented to contain 2% FCS, 10 mM, 0.3 mg/mL […], 100 U/mL penicillin G and […] streptomycin sulfate (complete media). Cells were plated into Falcon flat bottom, 96 well culture plates (200 μL/well) and cultured overnight at 37° C. and 6% CO2. Non-adherent cells were removed by washing with 200 μl/well of fresh medium. Wells containing adherent cells (˜70% monocytes) were replenished with 100 μL of fresh medium.
Preparation of Test Compound Stock Solutions
Test compounds were dissolved in […]. Compound stock solutions were prepared to an initial concentration of […]. Stocks were diluted initially to 20-200 μM in complete media. Nine two-fold serial dilutions of each compound were then prepared in complete medium.
Treatment of Cells with Test Compounds and Activation of TNF Production with Lipopolysaccharide
One hundred microliters of each test compound dilution were added to microtiter wells containing adherent monocytes and 100 μL complete medium. Monocytes were cultured with test compounds for 60 min at which time 25 μL of complete medium containing 30 ng/mL lipopolysaccharide from E. coli K532 were added to each well. Cells were cultured an additional 4 hrs. Culture supernatants were then removed and TNF presence in the supernatants was quantified using an ELISA.
Flat bottom, 96 well Corning High Binding ELISA plates were coated overnight (4° C.) with 150 μL/well of 3 μg/mL murine anti-human TNF-α MAb (R&D Systems #MAB210). Wells were then blocked for 1 h at room temperature with 200 μL/well of CaCl2-free ELISA buffer supplemented to contain 20 mg/mL BSA (standard ELISA buffer: […], 150 mM NaCl, 2 mM CaCl2, 0.15 mM thimerosal, pH 7.4). Plates were washed and replenished with 100 μL of test supernatants (diluted 1:3) or standards. Standards consisted of eleven 1.5-fold serial dilutions from a stock of 1 ng/mL recombinant human TNF (R&D Systems). Plates were incubated at room temperature for 1 h on orbital shaker (300 rpm), washed and replenished with 100 μL/well of 0.5 μg/mL goat anti-human TNF-α (R&D systems #AB-210-NA) biotinylated at a 4:1 ratio. Plates were incubated for 40 min, washed and replenished with 100 μL/well of alkaline phosphatase-conjugated streptavidin (Jackson ImmunoResearch #016-050-084) at 0.02 μg/mL. Plates were incubated 30 min, washed and replenished with 200 μL/well of 1 mg/mL of p-nitrophenyl phosphate. After 30 min, plates were read at 405 nm on a Vmax plate reader.

[2] = AA5225_IC50_IP (Table 4, assay code not explained); conditions: internal assay code
[3] = AA2734_IC50_IP (Table 4, assay code not explained); conditions: internal assay code

Compound	IC50 [2]	IC50 [3]	IC50 [1]
Cc1ccc(C(=O)Nc2ccon2)cc1-c1ccc2c(NC(C)C)nncc2c1 [Example 13, N-3-isoxazolyl-4-methyl-3-(1-((1-methylethyl)amino)-6-phthalazinyl)benzamide]	–	–	≤ 10 nM
Cc1ccc(C(=O)Nc2ccnn2C)cc1-c1ccc2c(N3CCOC[C@@H]3C)nncc2c1 [Example 15, 4-methyl-3-(1-((3S)-3-methyl-4-morpholinyl)-6-phthalazinyl)-N-(1-methyl-1H-pyrazol-5-yl)benzamide]	–	–	≤ 10 nM
Cc1ccc(C(=O)NCC(F)(F)F)cc1-c1ccc2c(NC(C)C)nncc2c1 [Example 29, 4-methyl-3-(1-((1-methylethyl)amino)-6-phthalazinyl)-N-(2,2,2-trifluoroethyl)benzamide]	–	–	≤ 10 nM
Cc1ccc(C(N)=O)cc1-c1ccc2c(N3CCC[C@H]3C(C)(C)C)nncc2c1 [Example 35, 3-(1-((2S)-2-(1,1-dimethylethyl)-1-pyrrolidinyl)-6-phthalazinyl)-4-methylbenzamide]	–	–	≤ 10 nM
Cc1ccc(C(=O)NC(C)C)cc1-c1ccc2c(N3CCC[C@H]3C)nncc2c1 [Example 37, 4-methyl-N-(1-methylethyl)-3-(1-((2R)-2-methyl-1-pyrrolidinyl)-6-phthalazinyl)benzamide]	–	–	≤ 10 nM
Cc1ccc(C(=O)NC(C)C)cc1-c1ccc2c(C(C)C)nncc2c1 [Example 39, 4-methyl-N-(1-methylethyl)-3-(1-(1-methylethyl)-6-phthalazinyl)benzamide]	–	–	≤ 10 nM
Cc1ccc(C(=O)Nc2ccnn2C)cc1-c1ccc2c(C3(C(F)(F)F)CC3)nncc2c1 [Example 226, 4-methyl-N-(1-methyl-1H-pyrazol-5-yl)-3-(1-(1-(trifluoromethyl)cyclopropyl)-6-phthalazinyl)benzamide]	1.12 nM	0.173 nM	–
Cc1ccc(C(=O)NC2CC2)cc1-c1ccc2c([C@@](C)(O)C(F)(F)F)nncc2c1 [Example 229, N-cyclopropyl-4-methyl-3-(1-((1R)-2,2,2-trifluoro-1-hydroxy-1-methylethyl)-6-phthalazinyl)benzamide]	0.599 nM	0.383 nM	–
Cc1ccc(C(=O)NC2CC2)cc1-c1ccc2c([C@](C)(O)C(F)(F)F)nncc2c1 [Example 230, N-cyclopropyl-4-methyl-3-(1-((1S)-2,2,2-trifluoro-1-hydroxy-1-methylethyl)-6-phthalazinyl)benzamide]	0.643 nM	0.364 nM	–
Cc1ccc(C#N)cc1-c1ccc2c(O[C@H](C)C(F)(F)F)nncc2c1 [Example 231, 4-methyl-3-(1-(((1R)-2,2,2-trifluoro-1-methylethyl)oxy)-6-phthalazinyl)benzonitrile]	80.8 nM	33.3 nM	–
Cc1ccc(C#N)cc1-c1ccc2c(O)nncc2c1 [Example 232, 3-(1-hydroxy-6-phthalazinyl)-4-methylbenzonitrile]	1.33 nM	–	–
Cc1ccc(C(=O)NC2CC2)cc1-c1ccc2c(C(C)(O)C(F)(F)F)nncc2c1 (stereo not drawn) [Example 244, N-cyclopropyl-4-methyl-3-(1-(2,2,2-trifluoro-1-hydroxy-1-methylethyl)-6-phthalazinyl)benzamide]	0.952 nM	0.434 nM	–
Cc1ccc(C(=O)NC2CC2)cc1-c1ccc2c(C(C)(C)O)nncc2c1 [Example 248, N-cyclopropyl-3-(1-(1-hydroxy-1-methylethyl)-6-phthalazinyl)-4-methylbenzamide]	0.812 nM	0.826 nM	–
Cc1ccc(C(=O)Nc2ccnn2C)cc1-c1ccc2c([C@@](C)(O)C(F)(F)F)nncc2c1 [Example 251, 4-methyl-N-(1-methyl-1H-pyrazol-5-yl)-3-(1-((1R)-2,2,2-trifluoro-1-hydroxy-1-methylethyl)-6-phthalazinyl)benzamide]	0.913 nM	0.2 nM	–
Cc1ccc(C(=O)NC2CC2)cc1-c1ccc2c([C@H](C)C(F)F)nncc2c1 [Example 256, N-cyclopropyl-3-(1-((1S)-2,2-difluoro-1-methylethyl)-6-phthalazinyl)-4-methylbenzamide]	1.03 nM	0.18 nM	–
CNC(=O)c1ccc(C)c(-c2ccc3c(O[C@@H](C)C(F)(F)F)nncc3c2)c1 [Example 258, N,4-dimethyl-3-(1-(((1S)-2,2,2-trifluoro-1-methylethyl)oxy)-6-phthalazinyl)benzamide]	–	1.75 nM	–
[2H]c1c([2H])c(C(=O)NC2CC2)c([2H])c(-c2ccc3c(OC(C)C(F)(F)F)nncc3c2)c1C (stereo not drawn) [Example 259, N-cyclopropyl-4-methyl-3-(1-((2,2,2-trifluoro-1-methylethyl)oxy)-6-phthalazinyl)benzamide-d 3]	0.991 nM	1.7 nM	–

Continued by falling IC50 [2], values first:

IC50 [2]	IC50 [3]	Compound	IC50 [1]
1000 nM	–	Cc1ccc(C(=O)O)cc1-c1ccc2c(C(C)(C)O)nncc2c1 [Example 247, 3-(1-(1-hydroxy-1-methylethyl)-6-phthalazinyl)-4-methylbenzoic acid]	–
1.33 nM	–	Cc1ccc(C(=O)Nc2ccnn2C)cc1-c1ccc2c(C(C)(O)C(F)(F)F)nncc2c1 (stereo not drawn) [Example 243, 4-methyl-N-(1-methyl-1H-pyrazol-5-yl)-3-(1-(2,2,2-trifluoro-1-hydroxy-1-methylethyl)-6-phthalazinyl)benzamide]	–
1.14 nM	0.334 nM	Cc1ccc(C(=O)Nc2ccnn2C)cc1-c1ccc2c(C(C)(C)F)nncc2c1 [Example 249, 3-(1-(1-fluoro-1-methylethyl)-6-phthalazinyl)-4-methyl-N-(1-methyl-1H-pyrazol-5-yl)benzamide]	–
1.08 nM	0.455 nM	Cc1ccc(C(=O)NC2CC2)cc1-c1ccc2c([C@@H](C)C(F)(F)F)nncc2c1 [Example 227a, N-cyclopropyl-4-methyl-3-(1-((1R)-2,2,2-trifluoro-1-methylethyl)-6-phthalazinyl)benzamide]	–
1.02 nM	0.813 nM	CCNC(=O)c1ccc(C)c(-c2ccc3c(O[C@@H](C)C(F)(F)F)nncc3c2)c1 [Example 257, N-ethyl-4-methyl-3-(1-(((1S)-2,2,2-trifluoro-1-methylethyl)oxy)-6-phthalazinyl)benzamide]	–
0.968 nM	0.148 nM	Cc1ccc(C(=O)NC2CC2)cc1-c1ccc2c(C3(C(F)(F)F)CC3)nncc2c1 [Example 225, N-cyclopropyl-4-methyl-3-(1-(1-(trifluoromethyl)cyclopropyl)-6-phthalazinyl)benzamide]	–
0.954 nM	0.296 nM	Cc1ccc(C(=O)Nc2ccnn2C)cc1-c1ccc2c([C@](C)(O)C(F)(F)F)nncc2c1 [Example 250, 4-methyl-N-(1-methyl-1H-pyrazol-5-yl)-3-(1-((1S)-2,2,2-trifluoro-1-hydroxy-1-methylethyl)-6-phthalazinyl)benzamide]	–
0.769 nM	0.501 nM	Cc1c(F)cc(C(=O)NC2CC2)cc1-c1ccc2c(O[C@H](C)C(F)(F)F)nncc2c1 [Example 254, N-cyclopropyl-3-fluoro-4-methyl-5-(1-(((1R)-2,2,2-trifluoro-1-methylethyl)oxy)-6-phthalazinyl)benzamide]	–
0.745 nM	0.242 nM	Cc1ccc(C(=O)NC2CC2)cc1-c1ccc2c(C(C)(C)F)nncc2c1 [Example 252, N-cyclopropyl-3-(1-(1-fluoro-1-methylethyl)-6-phthalazinyl)-4-methylbenzamide]	–
0.696 nM	0.168 nM	Cc1c(F)cc(C(=O)NC2CC2)cc1-c1ccc2c(C(C)(C)F)nncc2c1 [Example 253, N-cyclopropyl-3-fluoro-5-(1-(1-fluoro-1-methylethyl)-6-phthalazinyl)-4-methylbenzamide]	–
0.62 nM	2.89 nM	Cc1ccc(C(=O)NC2CC2)cc1-c1ccc2c(-c3ccc(S(=O)(=O)C(F)(F)F)cc3C)nncc2c1 [Example 233, N-cyclopropyl-4-methyl-3-(1-(2-methyl-4-((trifluoromethyl)sulfonyl)phenyl)-6-phthalazinyl)benzamide]	–
0.592 nM	0.307 nM	Cc1c(F)cc(C(=O)NC2CC2)cc1-c1ccc2c(O[C@@H](C)C(F)(F)F)nncc2c1 [Example 255, N-cyclopropyl-3-fluoro-4-methyl-5-(1-(((1S)-2,2,2-trifluoro-1-methylethyl)oxy)-6-phthalazinyl)benzamide]	–
